Data reported in patent US20200179402A1, “MONOHYDROXYLATED 17ALPHA-HYDROXYPROGESTERONE CAPROATE FOR REDUCING CONTRACTILITY” (Indiana University Research and Technology Corporation, priority 2016, published 2020).
Values belong to the compound of their own block, whether it stands above or below them.

What was measured:
human myometrial tissue = assay: Oxytocin-induced uterine contractility in human myometrial tissue strips (myograph); format: cell-based; conditions: oxytocin 100 nm; for oxytocin-induced contractile force (AUC) / oxytocin-induced contractile frequency: 10^−6 M for 30 minutes, over a 4-hour period, normalized to matched vehicle control (DMSO)
Protocol: In this Example, the effect of the monohydroxylated 17α-hydroxyprogesterone caproate (HPC-OH), 17α-hydroxyprogesteryl 6-hydroxycaproate, as compared to its parent compound, 17-hydoxyprogesterone caproate (HPC), and progesterone (P4) was analyzed in the setting of oxytocin-induced uterine contractility in human myometrial tissue. […] Myometrial strips (10 mm) were mounted in a digital myograph system ([…]) and maintained in modified Krebs buffer solution at physiologic temperature (37° C.) with constant premixed gas inflow. Oxytocin-induced (100 nm) contractility was measured before and after treatment with HPC-OH, HPC, or P4 (1 μm) for 30 minutes. Myometrial contractile frequency and force (AUC) were determined for each treatment over a 4-hour period and normalized to a matched vehicle control (DMSO). Statistical analysis was by student t-test (GraphPad Prism 7.0a). Statistical significance was defined as p<0.05.

[1] = test system: PHM1-41 human pregnancy myometrial cells; assay: MLC20 phosphorylation by in-cell western in HPC-primed myometrial cells incubated with THP-1 culture supernatant; format: cell-based; conditions: supernatant of treated THP-1 cells for 24 hours, 100 μM oxytocin
Protocol: (§1) An in vitro model of systemic inflammation-induced uterine contractility was created with mononuclear and myometrial cell cultures to assess the effect of progestogen treatment. THP-1 mononuclear cells were cultured with HPC—OH (17α-hydroxyprogesteryl 6-hydroxycaproate), HPC, or P4 (all at 100 nM) for 24 hours then treated with lipopolysaccharide (LPS, 1 μg/mL) for 24 hours. Culture supernatant was characterized by multiplex assay for 7 inflammation-related cytokines: IL-1α, […], IL-6, IL-8, IL-10, TNFα, and MCP-1. Next, PHM1-41 human pregnancy myometrial cells pretreated with HPC for 24 hours were incubated with THP-1 culture supernatant (from the previous step) for 24 hours. Myometrial contractility was assessed after stimulation with 100 μM oxytocin by in-cell western (ICW) quantification of myosin light chain (MLC20) phosphorylation, a molecular event preceding contractility.

[2] = human, in vivo
Protocol: (§2) Female patients with a singleton pregnancy received intramuscular doses of 250 mg hydroxyprogesterone caproate for the reduction of preterm birth starting between 16 weeks 0 days and 20 weeks 6 days. More particularly, the patients were divided into three sample groups: Group 1 (patients at 16-20 weeks gestation); Group 2 (patients at 24-28 weeks gestation); and Group 3 (patients at 32-36 weeks gestation). All patients had blood drawn daily for 7 days to evaluate pharmacokinetics.

THP-1 mononuclear cells = assay: LPS-induced cytokine production by THP-1 mononuclear cells (multiplex assay); format: cell-based; conditions: 100 nM for 24 hours, then LPS 1 μg/mL for 24 hours
Protocol: In this Example, the ability of HPC—OH to decrease systemic inflammation-induced myometrial contractility was compared to HPC and progesterone (P4).
as §1

[3] = women with history of prior spontaneous preterm birth, clinical trials; cited from earlier work
[4] = Pharmacokinetics in pregnant patients given intramuscular hydroxyprogesterone caproate; conditions: female, human, plasma, im, 250 mg; for AUC: AUC(1-t); for AUC / Cmax / Tmax: 250 mg intramuscular; for AUC / Cmax: mean (standard deviation)
Protocol: as §2

[5] = Group 1 (16-20 weeks gestation, N = 6)
[6] = Group 2 (24-28 weeks gestation, N = 8)
[7] = Group 3 (32-36 weeks gestation, N = 11)

Structure (SMILES): CC(=O)[C@@]1(OC(=O)CCCCCO)CC[C@H]2[C@@H]3CCC4=CC(=O)CC[C@]4(C)[C@H]3CC[C@@]21C [HPC—OH, 17α-hydroxyprogesteryl 6-hydroxycaproate]
oxytocin-induced contractile force (AUC) (human myometrial tissue): 66%+/−33%
oxytocin-induced contractile frequency (human myometrial tissue): 67%+/−21%
contractile force when compared directly to HPC (human myometrial tissue; 10^−6 M, compared directly to HPC): 64%+/−33%
MLC20 phosphorylation compared with HPC treated supernatant ([1]; versus HPC treated supernatant): trended towards a significant decline
half-life as compared to HPC [2]: longer half-life
monocyte production of IL-1α (THP-1 mononuclear cells): did not result in a statistically significant change
monocyte production of IL-1β (THP-1 mononuclear cells): did not result in a statistically significant change
monocyte production of IL-6 (THP-1 mononuclear cells): did not result in a statistically significant change
monocyte production of IL-8 (THP-1 mononuclear cells): did not result in a statistically significant change
production of IL-10 (THP-1 mononuclear cells): did not diminish
production of MCP-1 (THP-1 mononuclear cells): decreased
significantly increase TNFα production (THP-1 mononuclear cells): not
levels of TNFα produced, compared with exposure to HPC (THP-1 mononuclear cells; versus HPC): significantly lower

Structure (SMILES): CC(=O)[C@H]1CC[C@H]2[C@@H]3CCC4=CC(=O)CC[C@]4(C)[C@H]3CC[C@]12C [P4, progesterone]
oxytocin-induced contractile force (AUC) (human myometrial tissue): 75%+/−30%
oxytocin-induced contractile frequency (human myometrial tissue): 63%+/−18%
MLC20 phosphorylation [1]: Increased phosphorylation
production of IL-10 (THP-1 mononuclear cells): did not diminish

half-life [4]: 394 h
AUC [4, 5]: 571 ng·h/mL
AUC [4, 6]: 1270 ng·h/mL
AUC [4, 7]: 1270 ng·h/mL
Cmax [4, 5]: 5 ng/mL
Cmax [4, 6]: 12.5 ng/mL
Cmax [4, 7]: 12.3 ng/mL
Tmax [4, 5]: 132 h
Tmax [4, 6]: 24 h
Tmax [4, 7]: 48 h
Structure (SMILES): CCCCCC(=O)O[C@]1(C(C)=O)CC[C@H]2[C@@H]3CCC4=CC(=O)CC[C@]4(C)[C@H]3CC[C@@]21C [HPC, 17α-hydroxyprogesterone caproate]
risk reduction of recurrent preterm delivery [3]: 33%
oxytocin-induced contractile frequency (human myometrial tissue): 71%+/−15%
production of IL-10 (THP-1 mononuclear cells): significantly reduced
production of MCP-1 (THP-1 mononuclear cells): decreased
significantly increase TNFα production (THP-1 mononuclear cells): significantly increase
